In PMC10934261, “Designing Potent Anti-Cancer Agents: Synthesis and Molecular Docking Studies of Thieno[2,3-d][1,2,4]triazolo[1,5-a]pyrimidine Derivatives” (Molecules, 2024):

Tests used:
[1] = system: human colorectal HCT-116 cancer cell line; test: In vitro cytotoxic screening (MTT assay), HCT-116; type: cell-based; details: for Percentage cytotoxicity on HCT-116: average ± standard deviation; for IC50: Homo sapiens, HCT-116, 48 h incubation, mean of three values, read-out: IC50 (Mean ± SD) HCT-116
[2] = system: human breast MCF-7 cancer cell line; test: In vitro cytotoxic screening (MTT assay), MCF-7; type: cell-based; details: for Percentage cytotoxicity on MCF-7: average ± standard deviation; for IC50: Homo sapiens, MCF7, MCF-7, 48 h incubation, mean of three values, read-out: IC50 (Mean ± SD) MCF-7
[3] = system: human skin normal cell line (BJ-1); test: Cytotoxicity on normal cells (MTT assay), BJ-1; type: cell-based; details: for Percentage cytotoxicity on normal BJ1 human skin fibroblast cell line: average ± standard deviation; for IC50: Homo sapiens, BJ-1 normal skin cells, 48 h incubation, mean of three values, read-out: IC50 (Mean ± SD) BJ-1
Description: It can therefore be concluded that 10b presents a safer cytotoxicity profile than 10e.
The cell lines were obtained from Karolinska Center, Department of Oncology and Pathology, Karolinska Institute and Hospital, Stockholm, Sweden. as follows: human breast MCF-7, colorectal HCT-116 and prostate PC-3 cancer cell lines and human skin normal BJ-1 cell line. Exponentially, cells were cultured at a concentration of 10^4 cells/well for 24 h, afterwards fresh medium containing different concentrations of the tested samples was added. Serial two-fold dilution of the tested samples were added using a multichannel pipette. Moreover, all cells were cultivated at 37 °C, 5% CO2 and 95% humidity. Also, incubation of control cells occurred at 37 °C. […] After rinsing the wells using water until stain free, 30% glacial acetic acid was added to all wells with shaking the plates on a Microplate reader (TECAN, Inc.) to measure the absorbance at a wavelength of 490 nm. The cytotoxicity was estimated by IC50 in μM, which is the concentration that inhibits 50% of growth of cancer cells. […]
1.1. In vitro cytotoxic screening
The cell lines were obtained from Karolinska Center, Department of Oncology and Pathology, Karolinska Institute and Hospital, Stockholm, Sweden. as follows: human breast MCF-7, colorectal HCT-116 and prostate PC-3 cancer cell lines and human skin normal BJ-1 cell line. Exponentially, cells were placed in 10^4 cells/ well for 24 h, and then add fresh medium which containing different concentration of the tested sample. Serial two-fold dilution of the tested sample were added using a multichannel pipette. Moreover, all cells were cultivated at 37 °C, 5% CO2 and 95% humidity. Also, incubation of control cells occurred at 37 °C. […]
Rinse the wells using water until no stain. After that, add 30% glacial acetic acid to all wells with shaking plates on Microplate reader (TECAN, Inc.) to measure the absorbance, using a test wavelength of 490 nm. Besides, compare the treated samples with the control cell. The cytotoxicity was estimated by IC50 in (μ M), the concentration that inhibits 50% of growth of cancer cell. […]
The molecular docking simulation of the promising in vitro screened cyclopenta[4,5]thieno[2,3-d][1,2,4]triazolo[1,5-a]pyrimidin-9(6H)-ones 10b and 10e against EGFR and PI3K was done using the Molecular Operating Environment software (MOE-Dock) version 2014.0901. The co-crystallized structures of EGFR and PI3K kinases complexed with their native ligands, erlotinib and quinolone LXX, were downloaded from the protein data bank (PDB codes: 1M17 and 3L54, respectively). All minimizations were performed using MOE until an RMSD gradient of 0.05 kcal∙mol−1Å−1 with MMFF94x force field and the partial charges were automatically calculated. Preparation of the enzyme structures was done for molecular docking using Protonate 3D protocol with the default options in MOE. London dG scoring function and Triangle Matcher placement method were used in the docking protocol. Initially, the original ligands were re-docked into the active binding site of EGFR and PI3K kinases to assess the root-mean-square deviation values. Then, the docking studies of the newly targeted compounds were estimated within the ATP-binding sites after elimination of the co-crystallized […]
Percentage cytotoxicity of 100 µM of the compounds on human tumor cell lines*

[4] = system: human prostate PC-3 cancer cell line; test: In vitro cytotoxic screening (MTT assay), PC-3; type: cell-based; details: for Percentage cytotoxicity on PC-3: average ± standard deviation; for IC50: Homo sapiens, PC-3, 48 h incubation, mean of three values, read-out: IC50 (Mean ± SD) PC-3

| SMILES | Percentage cytotoxicity on HCT-116 ([1]; 12.5 µM) [%] | Percentage cytotoxicity on HCT-116 ([1]; 25 µM) [%] | Percentage cytotoxicity on HCT-116 ([1]; 50 µM) [%] | Percentage cytotoxicity on HCT-116 ([1]; 100 µM) [%] | melting point [°C] | Percentage cytotoxicity on MCF-7 ([2]; 12.5 µM) [%] | Percentage cytotoxicity on MCF-7 ([2]; 25 µM) [%] | Percentage cytotoxicity on MCF-7 ([2]; 50 µM) [%] | Percentage cytotoxicity on MCF-7 ([2]; 100 µM) [%] | IC50 [2] [µM] | Percentage cytotoxicity on normal BJ1 human skin fibroblast cell line ([3]; 12.5 µM) [%] | Percentage cytotoxicity on normal BJ1 human skin fibroblast cell line ([3]; 25 µM) [%] | Percentage cytotoxicity on normal BJ1 human skin fibroblast cell line ([3]; 50 µM) [%] | Percentage cytotoxicity on normal BJ1 human skin fibroblast cell line ([3]; 100 µM) [%] | IC50 [3] [µM] | Percentage cytotoxicity on PC-3 ([4]; 12.5 µM) [%] | Percentage cytotoxicity on PC-3 ([4]; 25 µM) [%] | Percentage cytotoxicity on PC-3 ([4]; 50 µM) [%] | Percentage cytotoxicity on PC-3 ([4]; 100 µM) [%] | IC50 [1] [µM] | further results |
| --- | --- | --- | --- | --- | --- | --- | --- | --- | --- | --- | --- | --- | --- | --- | --- | --- | --- | --- | --- | --- | --- |
| O=c1c2c3c(sc2nc2[nH]c(-c4ccc(Br)cc4)nn12)CCC3 [Compound 10b, 2-(4-Bromophenyl)-7,8-dihydro-3H-cyclopenta[4,5]thieno[2,3-d][1,2,4]triazolo[1,5-a]pyrimidin-9(6H)-one] | 6.2±0.9 | 14.3±1.7 | 15.0±2.5 | 24.4±6.6 | 268 to 270 | 30.3±4.3 | 64.4±2.2 | 80.8±2.8 | 86.4±10 | 19.4 ± 0.22 | 16.8±8.3 | 34.2±7.4 | 34.6±3.8 | 39.3±7.7 | 222 ± 30 | 10.9±5.2 | 18.4±1.7 | 22.1±0.6 | 41.4±0.7 | – | – |
| O=c1c2c3c(sc2nc2[nH]c(-c4c5ccccc5cc5ccccc45)nn12)CCC3 [Compound 10e, 2-(Anthracen-9-yl)-3,6,7,8-tetrahydro-9H-cyclopenta[4,5]thieno[2,3-d][1,2,4]triazolo[1,5-a]pyrimidin-9-one] | 0.0±0.005 | 19.0±4.9 | 34.9±2.8 | 86.7±4.4 | 101 to 103 | 37.9±6.7 | 85.6±3.6 | 97.9±1.2 | 98.3±0.5 | 14.5 ± 0.3 | 13.8±2.1 | 44.8±1.9 | 58.1±3.2 | 83.9±1.2 | 34.8 ± 4.5 | 29.6±3.8 | 56.6±1.3 | 64.2±1.1 | 75.9±1.3 | 57 ± 0.61 | IC50 [4]: 25.2 ± 0.4 µM |
| COc1cccc2c1C(=O)c1c(O)c3c(c(O)c1C2=O)C[C@@](O)(C(=O)CO)C[C@@H]3O[C@H]1C[C@H](N)[C@H](O)[C@H](C)O1 [Doxorubicin, reference compound] | – | – | – | – | – | – | – | – | – | 40 ± 3.9 | – | – | – | – | 49.2 ± 1.08 | – | – | – | – | 20.5 ± 2.1 | IC50 [4]: 6.8 ± 1.2 µM |
